{"source": "patent EP4050002A1", "about": "“ANTI-PROLIFERATIVE AGENTS” (First Health Pharmaceuticals B.V., priority 2021, dated 2022)", "experiment": "Pharmacokinetic studies, single administration", "assay_type": "in vivo, male Swiss albino mice", "details": "for MRT last: read-out: MRT0-last", "procedure": "The pharmacokinetic study was performed in male Swiss albino mice from Hylasco Biotechnology Pvt. Ltd. (A Charles River technology Licensee). The tissue distribution study was performed in male Swiss albino mice and in male FOXN1^nu/nu nude mice (Envigo spa). The efficacy study was performed in male FOXN1^nu/nu nude mice.\nSingle intravenous administration studies were done as follows: • 1. Compound 5 • dose: 1 mg/kg • dose concentration: 0.2 mg/ml in 10% DMSO and 10% Solutol in WFI (90%). • volume: 5 ml/kg • blood withdrawal time points: 0.083, 0.25, 0.5, 1, 2, 4, 8, 24 hours post administration • 2. Compound 3 • […] • dose concentration: 0.2 mg/ml in 10% DMSO and 10% Solutol in WFI (90%). • volume: 5 ml/kg • blood withdrawal time points: 0.083, 0.25, 0.5, 1, 2, 4, 8, 24 hours post administration\nSingle intraperitoneal administration studies were done as follows: • 1. Compound 5 • dose 1: 45 mg/kg • dose concentration: […] in 10% DMSO, 5% TWEEN 80 and WFI (85%) • volume: 5 ml/kg • blood withdrawal time points: 0.25, 0.5, 1, 2, 4, 6, 8, 24 hours post administration • brain, liver and lungs collected at 4, 8 and 24 hours • 2. Compound 5 • dose 2: 10 mg/kg • dose concentration: 2 mg/ml in 10% DMSO, 10% Solutol and WFI (90%). • volume: 5 ml/kg • blood withdrawal time points: 0.25, 0.5, 1, 2, 4, 6, 8, 24 hours post administration\nSingle oral administration studies were done as follows: • 1. Compound 5 • dose: 45 mg/kg • dose concentration: 4.5 mg/ml in Labrasol (30%), Capmul PG 8 (30%), Cremophor EL (10%) and PEG (30%) • volume given by oral gavage: 10 ml/Kg • blood withdrawal time points: 0.08, 0.25, 0.5, 1, 2, 4, 6, 8, 24 hours post administration\nSingle intra tracheal administration studies were done as follows: • 1. Compound 5 • dose: 0.08 mg/kg • dose concentration: 0.04 mg/ml in DMSO (1%) and WFI (99%) • volume given by intra tracheal route: 2 ml/Kg • blood withdrawal time points: 0.03, 0.08, 0.17, 0.25, 0.75, 1.5, 2, 4 hours post administration\nAnimals were observed up to 24 hours after dose administration for behavioral or physical alterations. For blood withdrawal, mice were anesthetized using gaseous anesthesia and 0.2 to 0.3 ml of blood samples were collected in Li-Heparin containing tubes at the time points above indicated, stored on ice, centrifuged within 15 minutes to separate plasma at 1540 ref (5000 rpm) at 4°C for 10 minutes; plasma was separated and transferred to new tubes.\nSelected organs were collected at 4, 8 and 24 hours for drug distribution studies: mice were anesthetized and intra-cardiac whole body perfusion was performed using chilled saline. Separated tissues were immediately washed, dried, weighed and frozen at -80±10°C until homogenization. The levels of compound in the tissues and in plasma were quantified by LC-MS/MS, using as instrument Q-TRAP 500, with a column Phenomenex, KINETEX 5µ EVO C18 50 mm X 4.5 mm (Phenomenex). The mobile phase employed was composed as follows: aqueous reservoir, 10 mM Ammonium Acetate with 0.1% Formic acid in MilliQ water; organic reservoir, Acetonitrile:Methanol (50:50, v/v); flow rate 1 ml/min; injection volume 10µl; rinsing solution, Acetonitrile:Methanol:Water (20:60:20, v/v).\nCalibration Curve & Quality Control samples preparation: 0.5 µl of calibration curve standards were diluted 25X with blank matrix (i.e. Acetonitrile:Methanol (1:1, v/v)) and precipitated with 200 µl of acetonitrile containing internal standard at 200 ng/ml concentration, then vortexed for 5 min at 850 rpm, centrifuged at 4000 rpm for 5 min at 4°C, from this 110 µl of supernatant was separated and diluted with 130 µl of methanol:water, (1:1 v/v) .\nTelmisartan (200 ng/ml) was used as internal standard. Telmisartan was spiked in 100% acetonitrile to a final concentration of 200 ng/ml. […]", "key": {"[1]": {"details": "I.P. 1, 45 mg/kg, TWEEN-based vehicle"}, "[2]": {"details": "I.P. 2, 10 mg/kg, Solutol-based vehicle"}, "[3]": {"details": "mouse, in vivo, iv, I.V., 1 mg/kg"}, "[4]": {"details": "mouse, plasma, ip, I.P. 1, 45 mg/kg, TWEEN-based vehicle"}, "[5]": {"details": "mouse, plasma, ip, I.P. 2, 10 mg/kg, Solutol-based vehicle"}, "[6]": {"details": "mouse, plasma, iv, I.V., 1 mg/kg"}, "[7]": {"details": "mouse, plasma, po, P.O., 45 mg/kg"}, "[8]": {"details": "mouse, plasma, I.T., 0.08 mg/kg"}}, "note": "Read-outs that look alike come from different tables or passages of the source.", "data": [{"smiles": "CCCCc1cn(-c2ccc(-c3nnc(-c4ccccc4C(F)(F)F)o3)cc2)nn1", "note": "[Compound 5]", "values": [{"measurement": "AUCExtra", "setting": "[1]", "value": 14.86, "unit": "%"}, {"measurement": "F", "setting": "[1]", "value": 136, "unit": "%"}, {"measurement": "AUCExtra", "setting": "[2]", "value": 5.02, "unit": "%"}, {"measurement": "F", "setting": "[2]", "value": 135, "unit": "%"}, {"measurement": "AUCExtra", "setting": "I.T., 0.08 mg/kg", "value": 2.92, "unit": "%"}, {"measurement": "AUCExtra", "setting": "I.V., 1 mg/kg", "value": 3.98, "unit": "%"}, {"measurement": "AUCExtra", "setting": "P.O., 45 mg/kg", "value": 16.91, "unit": "%"}, {"measurement": "F", "setting": "P.O., 45 mg/kg", "value": 95, "unit": "%"}, {"measurement": "bioavailability", "setting": "mouse, in vivo, ip, intraperitoneal route, read-out: absolute bioavailability (F)", "value": "> 100", "unit": "%"}, {"measurement": "Vd", "setting": "[3]", "value": 8.2, "unit": "L/kg"}, {"measurement": "clearance", "setting": "[3]", "value": 40, "unit": "mL/min/kg"}, {"measurement": "AUC(0-inf)", "setting": "[4]", "value": 25600, "unit": "ng·h/mL"}, {"measurement": "AUC(0-t)", "setting": "[4]", "value": 21800, "unit": "ng·h/mL"}, {"measurement": "Cmax", "setting": "[4]", "value": 3700, "unit": "ng/mL"}, {"measurement": "Tmax", "setting": "[4]", "value": 2, "unit": "h"}, {"measurement": "MRT last", "setting": "[4]", "value": 7.46, "unit": "h"}, {"measurement": "AUC(0-inf)", "setting": "[5]", "value": 5630, "unit": "ng·h/mL"}, {"measurement": "AUC(0-t)", "setting": "[5]", "value": 5350, "unit": "ng·h/mL"}, {"measurement": "Cmax", "setting": "[5]", "value": 692, "unit": "ng/mL"}, {"measurement": "Tmax", "setting": "[5]", "value": 2, "unit": "h"}, {"measurement": "MRT last", "setting": "[5]", "value": 6.49, "unit": "h"}, {"measurement": "AUC(0-inf)", "setting": "[6]", "value": 417, "unit": "ng·h/mL"}, {"measurement": "AUC(0-t)", "setting": "[6]", "value": 400, "unit": "ng·h/mL"}, {"measurement": "C0", "setting": "[6]", "value": 879, "unit": "ng/mL"}, {"measurement": "half-life", "setting": "[6]", "value": 2.37, "unit": "h"}, {"measurement": "MRT last", "setting": "[6]", "value": 1.09, "unit": "h"}, {"measurement": "AUC(0-inf)", "setting": "[7]", "value": 17800, "unit": "ng·h/mL"}, {"measurement": "AUC(0-t)", "setting": "[7]", "value": 14800, "unit": "ng·h/mL"}, {"measurement": "Cmax", "setting": "[7]", "value": 1350, "unit": "ng/mL"}, {"measurement": "Tmax", "setting": "[7]", "value": 4, "unit": "h"}, {"measurement": "MRT last", "setting": "[7]", "value": 9.05, "unit": "h"}, {"measurement": "AUC(0-inf)", "setting": "[8]", "value": 815, "unit": "ng·h/mL"}, {"measurement": "AUC(0-t)", "setting": "[8]", "value": 791, "unit": "ng·h/mL"}, {"measurement": "Cmax", "setting": "[8]", "value": 1950, "unit": "ng/mL"}, {"measurement": "Tmax", "setting": "[8]", "value": 0.03, "unit": "h"}, {"measurement": "MRT last", "setting": "[8]", "value": 0.72, "unit": "h"}]}]}
